Converted amounts (≈) assume the structure as drawn.
Legend:
HL-60 cells = experiment: CD11b expression assay by flow cytometry in HL-60 cells; assay type: cell-based, human; settings: for Activity in the CD11b assay / EC50: HL-60 cells; for Activity in the CD11b assay: concentration-response; for EC50: Homo sapiens, HL-60, 96 h, 4-day (96 h) treatment, CD11b upregulation, read-out: EC50 [nM], %CD11b response in HL60 cells; for LipE (lipophilic efficiency): LipE = -LogEC50-cLogP, EC50 of CD11b assay in HL-60
Method: Cells were treated with 1000 structurally diverse small molecules selected from a commercial library. A single point testing concentration of 10 µM was used. After 4 days, cells were stained with a CD11b antibody and analysed using flow cytometry. Compounds upregulating CD11b expression greater than 10% in at least three of the cell lines were considered as potential hits. Hit confirmation was undertaken as follows: first, the hit was re-tested at 10 µM both with the CD11b antibody and an isotype control to account for nonspecific binding. Secondly, the effect of the hit on cell proliferation and viability was evaluated through staining with DAPI to evaluate the number of dead cells, and with acridine orange to detect total cell numbers. Thirdly, the induction of differentiation caused by the compounds was confirmed through morphology assessment with Giemsa staining. Finally, the molecule was resynthesised and fully characterised to confirm structural authenticity. This fresh sample was then retested in the CD11b assay to generate a concentration-response curve. The study of proliferation and morphology was performed on a panel of six cell lines: HL-60, THP-1, OCI-AML3, KG-1, Kasumi-1 and ME-1.
Thus, structure-activity relationship studies were initiated, where the potency of the new analogues was evaluated through concentration-response testing using the CD11b assay in HL-60 cells. Lipophilic efficiency (LipE), which also accounts for lipophilicity, was also used to compare the quality of the analogues. Even though multiple parameters can influence activity in a cell-based assay, LipE is a useful guide to compare analogues.
PE mouse-anti-human-CD11b/Mac-1 (ICRF44, Cat 555388) and PE-mouse-IgG1-κ-isotype control (MOPC-21, Cat 555749) were purchased from BD Bioscience. Cells were suspended in 100 μL growth media (RPMI + 10% FBS + 1% L-glutamine) at a density of 2 × 10^4 cells/well of a V-bottom 96 well plate (Corning, Cat 3894) and grown for 96 h in the presence of compound at the required concentration. After 96 h, the plate was centrifuged, media was removed, and cells were resuspended in 50 µL of blocking buffer (IMDM, no phenol red + 10% FBS) containing 2.5 μL of either CD11b or isotype control antibody and incubated on ice in the dark for 20 min. Cells were washed twice in 200 μL of staining buffer (IMDM, no phenol red + 1% FBS) before being resuspended in 200 μL of staining buffer containing 1 μg/mL of DAPI to help identify dead cells. Flow cytometry data were collected on an Attune NxT and analysed using the Attune NxT software (Life Technologies).

[1] = Metabolic stability in mouse S9 fraction; assay type: in vitro ADME; settings: ER = Clint/species flow rate (mice: 90 mL/min/kg)
Method: (§1) Determination of semi-thermodynamic solubility, metabolic stability in S9 fraction, Caco-2 permeability and PPB were performed by Cyprotex Ltd. (www.cyprotex.com, accessed on 22 October 2021) using their standard assays and as described on their website.
[22] Extraction ratio (ER) is calculated as the measured intrinsic clearance over the hepatic blood flow of each species (90 mL/min/kg for mice). It has the advantage over other parameters (half-life, clearance) that it is independent of the species used

[2] = Semi-thermodynamic aqueous solubility; assay type: physicochemical; settings: thermodynamic from solid
Method: as §1

[3] = Single dose PK study in male CD-1 mice; assay type: in vivo, mouse
Text: In order to undertake a preliminary assessment of the pharmacokinetic (PK) profile of this compound class, three compounds were deemed to have sufficient intrinsic potency, solubility and in vitro metabolic stability properties to progress into a single dose in vivo PK study. […] […] […] Nonetheless, the clearance of the three compounds was high to moderate, and at this dose the in vitro EC50 was not reached.
Male CD-1 mice were used for the PK studies, with three for each treatment. […] Blood concentration was measured by LC-MS/MS over 24 h.

[4] = aqueous (buffer or water not specified)
[5] = mouse, whole blood, single dose 3 mg/kg po, blood
[6] = aqueous (not further specified)

| Compound | EC50 (HL-60 cells) | ER in mS9 (extraction ratio) [1] | solubility thermodynamic [2, 4] | LipE (lipophilic efficiency) (HL-60 cells) | solubility thermodynamic [2, 6] | further results |
| --- | --- | --- | --- | --- | --- | --- |
| CN1C(=O)COCc2ccc(-c3cccc(NS(C)(=O)=O)c3)cc21 [Compound 7, N-(3-(1-Methyl-2-oxo-1,2,3,5-tetrahydrobenzo[e][1,4]oxazepin-8-yl)phenyl)methanesulfonamide] | > 30000 nM | 0.07 | > 200 µM |  |  | Activity in the CD11b assay (HL-60 cells): completely inactive |
| CCN1C(=O)COCc2ccc(-c3cccc(NS(C)(=O)=O)c3)cc21 [Compound 8, N-(3-(1-Ethyl-2-oxo-1,2,3,5-tetrahydrobenzo[e][1,4]oxazepin-8-yl)phenyl)methanesulfonamide] | 6200 nM | 0.25 | > 200 µM | 3.8 |  |  |
| CC(C)CN1C(=O)COCc2ccc(-c3cccc(NS(C)(=O)=O)c3)cc21 [Compound 10, N-(3-(1-Isobutyl-2-oxo-1,2,3,5-tetrahydrobenzo[e][1,4]oxazepin-8-yl)phenyl)methanesulfonamide] | 740 nM | 0.51 | > 200 µM | 4.0 |  |  |
| CS(=O)(=O)Nc1cccc(-c2ccc3c(c2)N(C2CCCC2)C(=O)COC3)c1 [Compound 12, N-(3-(1-Cyclopentyl-2-oxo-1,2,3,5-tetrahydrobenzo[e][1,4]oxazepin-8-yl)phenyl)methanesulfonamide] | 650 nM | 0.83 | 124 µM (≈ 49.7 µg/mL) | 4.0 |  |  |
| CS(=O)(=O)Nc1cccc(-c2ccc3c(c2)N(C2COC2)C(=O)COC3)c1 [Compound 13, N-(3-(1-(Oxetan-3-yl)-2-oxo-1,2,3,5-tetrahydrobenzo[e][1,4]oxazepin-8-yl)phenyl)methanesulfonamide] | > 10000 nM | 0.08 | 10 µM (≈ 3.88 µg/mL) |  |  |  |
| CS(=O)(=O)Nc1cccc(-c2ccc3c(c2)N(c2ccccc2)C(=O)COC3)c1 [Compound 14, N-(3-(2-Oxo-1-phenyl-1,2,3,5-tetrahydrobenzo[e][1,4]oxazepin-8-yl)phenyl)methanesulfonamide] | 220 nM |  | 14 µM (≈ 5.72 µg/mL) | 3.9 |  | bioavailability ([3]; mouse, whole blood, 3 mg/kg po vs 0.33 mg/kg iv): 15%; half-life ([3]; mouse, whole blood, single dose 3 mg/kg po and 0.33 mg/kg iv, blood, route of parameter not given): 4.1 h; Cmax [3, 5]: 44 ng/mL; Tmax [3, 5]: 1.2 h; Vd/F ([3]; mouse, whole blood, single dose 3 mg/kg po, blood, read-out: Vz/F): 100 L/kg; Clobs ([3]; single dose 0.33 mg/kg iv, blood): 43 mL/min/kg; Clobs/F ([3]; single dose 3 mg/kg po, blood): 286 mL/min/kg; Clearance ([3]; single dose iv 0.33 mg/kg and po 3 mg/kg): lowest clearance |
| COC(=O)Nc1cccc(-c2ccc3c(c2)N(C(C)C)C(=O)COC3)c1 [Compound 28, Methyl (3-(1-isopropyl-2-oxo-1,2,3,5-tetrahydrobenzo[e][1,4]oxazepin-8-yl)phenyl)carbamate] | 500 nM | 0.31 |  | 3.7 | 88 µM (≈ 31.2 µg/mL) | Activity in the CD11b assay (HL-60 cells): equally active |
| CC(C)N1C(=O)COCc2ccc(-c3ccc(F)c(NS(C)(=O)=O)c3)cc21 [Compound 35, N-(2-Fluoro-5-(1-isopropyl-2-oxo-1,2,3,5-tetrahydrobenzo[e][1,4]oxazepin-8-yl)phenyl)methanesulfonamide] | 1600 nM | 0.21 |  | 4.0 | > 200 µM |  |
| Cc1ccc(-c2ccc3c(c2)N(C(C)C)C(=O)COC3)cc1NS(C)(=O)=O [Compound 36, N-(5-(1-Isopropyl-2-oxo-1,2,3,5-tetrahydrobenzo[e][1,4]oxazepin-8-yl)-2-methylphenyl)methanesulfonamide] | 600 nM | 1 |  | 4.1 | > 200 µM |  |
| COc1ccc(-c2ccc3c(c2)N(C(C)C)C(=O)COC3)cc1NS(C)(=O)=O [Compound 37, N-(5-(1-Isopropyl-2-oxo-1,2,3,5-tetrahydrobenzo[e][1,4]oxazepin-8-yl)-2-methoxyphenyl)methanesulfonamide] | 1200 nM | 1 |  | 4.2 | > 200 µM |  |
